Laboratory results: article PMC8961568 (Biomolecules, 2022)

Biological target: T1, HQDS.b. (Streptomyces bingchenggensis, UniProt D7BW96)
T1 construct: gene SBI_08688; His8-TEV tagged (pET28b), E. coli BL21(DE3), Ni-NTA purified
T1 sequence (D7BW96 1-278): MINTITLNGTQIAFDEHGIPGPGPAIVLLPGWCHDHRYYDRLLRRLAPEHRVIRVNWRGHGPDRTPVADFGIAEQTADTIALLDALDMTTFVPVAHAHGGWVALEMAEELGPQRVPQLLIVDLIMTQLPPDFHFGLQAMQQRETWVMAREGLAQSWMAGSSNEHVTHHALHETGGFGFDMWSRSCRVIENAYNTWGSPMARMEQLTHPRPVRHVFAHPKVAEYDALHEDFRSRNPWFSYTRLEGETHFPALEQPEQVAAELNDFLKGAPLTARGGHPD
Assay: spectrophotometric PQS consumption at […] nm
Type: biochemical
Details: 50 mM Tris, 2 mM EDTA, 10% PEG 1500, pH 8.0, 30 °C

`CCCCCCCc1[nH]c2ccccc2c(=O)c1O` [PQS, 2-heptyl-3-hydroxy-4(1H)-quinolone] was tested, and the KM was “HQDS.b., which exhibits the lowest KM towards PQS among the enzymes tested (Table S1)”.
